Structures can show the parent of a compound that is named as a salt. Where two headings read alike, the source gives them in different places.
Legend:
"Swiss" mice = assay: Acute toxicity determined as approximate LD50; format: in vivo; conditions: i.p.; three groups of three "Swiss" mice
Experimental: (§1) The acute toxicity of some of the compounds of formula (I) was determined as approximate LD50, according to the method described in Acta Pharmacol, et toxicol, 25, 345 (1967), on three groups of three "Swiss" mice.

[1] = system: collagen induced platelet aggregation (platelet-rich rabbit plasma); assay: Collagen (40 μg/ml) induced platelet aggregation in vitro on platelet-rich plasma; format: cell-based; conditions: Oryctolagus cuniculus, 10 min
Experimental: (§2) The inhibitory activity on platelet aggregation was determined for the same compounds in vitro on platelet-rich rabbit plasma prepared by collecting the blood in a plastic centrifuge tube containing enough 3.8% sodium citrate to give a concentration of 0.38 g/100 ml when mixed with the blood, and then centrifuging at 100 × g for 20 minutes.
(§3) 1 ml aliquots of the thus prepared plasma were placed in a Platelet Aggregation Meter connected to a potentiometric recorder and tested according to Born, Nature (London), 194, 927 (1962).
(§4) The plasma-test compound mixtures were incubated for 10 min. at 37° C before addition of the aggregating agents, that is, Adenosine Diphosphate (ADP) or collagen.
(§5) The curves were read following the method described by O'Brien et al., Thromb. Diath. Haemorrhag. 16, 751 (1966). Slope and maximum transmission were recorded and expressed as % change with respect to controls. In the case of collagen induced platelet aggregation, the delay time ("reaction time") in seconds from the addition of the aggregating agent to the inflection of the curve was also measured and expressed as % change as above. For comparison purposes, acetylsalicylic acid (ASA) was also tested in the same conditions as the test compounds.
(§6) Negative figures in slope and maximum transmission % changes indicate antiaggregating activity. Positive figures in delay time % changes indicate that the compound is effective in prolonging the reaction time in the collagen induced platelet aggregation test.

[2] = Acute toxicity determined as approximate LD50; format: in vivo; conditions: mouse, in vivo, ip; three groups of three "Swiss" mice
Experimental: as §1

[3] = system: ADP induced platelet aggregation (platelet-rich rabbit plasma); assay: ADP (5 μg/ml) induced platelet aggregation in vitro on platelet-rich plasma; format: cell-based; conditions: Oryctolagus cuniculus, 10 min
Experimental: as §2, §3, §4, §5, §6

[4] = read-out: Maximum transmission, % change

Row | Structure (SMILES) | Approximate LD50 ("Swiss" mice) | inhibition at 1.25 µg/mL [1, 4] | inhibition at 1.25 µg/mL ([1]; read-out: Slope, % change) | LD50 [2] | water solubility (Solubility (qualitative)) | inhibition at 100 µg/mL [3, 4] | inhibition at 100 µg/mL ([3]; read-out: Slope, % change) | further results
1 | O=C(O)CSc1nc(-c2ccccc2)c(-c2ccccc2)o1 [Example 4, METHYLAMINOETHANOL SALT OF S-(4,5-DIPHENYLOXAZOL-2-YL)-MERCAPTOACETIC ACID] | ~220 mg/kg | – | – | – | – | – | – | –
2 | CN(C)CCOC(=O)CSc1nc(-c2ccccc2)c(-c2ccccc2)o1 [Example 5, 2-DIMETHYL[…]-(4,5-DIPHENYLOXAZOL-2-YL)-MERCAPTOACETATE] | – | 67.7% | 72.5% | ~220 mg/kg | water soluble | 45.2% | 47.2% | –
3 | O=C(O)CSc1nc(-c2ccccc2)c(-c2ccccc2)o1 [Example 2, S-(4,5-DIPHENYLOXAZOL-2-yl)-MERCAPTOACETIC ACID] | – | – | – | ~220 mg/kg | – | – | – | –
4 | O=C(O)CSc1nc(-c2ccccc2)c(-c2ccccc2)o1 [Example 3, 2-DIMETHYLAMINOETHANOL SALT OF S-(4,5-DIPHENYLOXAZOL-2-YL)-MERCAPTOACETIC ACID] | ~220 mg/kg | – | – | – | water-soluble | – | – | –
5 | NC(=O)CSc1nc(-c2ccccc2)c(-c2ccccc2)o1 [Example 9, S-(4,5-DIPHENYLOXAZOL-2-YL)-MERCAPTOACETAMIDE] | – | – | – | ~1200 mg/kg | – | – | – | inhibition at 1.25 µg/mL ([1]; collagen 40 μg/ml, compound 1.25 μg/ml, 10 min incubation at 37° C, change with respect to controls, negative = antiaggregating, read-out: Maximum transmission, % change): 12.3%; inhibition at 1.25 µg/mL ([1]; collagen 40 μg/ml, compound 1.25 μg/ml, 10 min incubation at 37° C, change with respect to controls, negative = antiaggregating, read-out: Slope, % change): 18.4%; inhibition at 100 µg/mL ([3]; ADP 5 μg/ml, compound 100 μg/ml, 10 min incubation at 37° C, change with respect to controls, negative = antiaggregating, read-out: Maximum transmission, % change): 6.6%; inhibition at 100 µg/mL ([3]; ADP 5 μg/ml, compound 100 μg/ml, 10 min incubation at 37° C, change with respect to controls, negative = antiaggregating, read-out: Slope, % change): 7.1%
6 | CC(=O)Oc1ccccc1C(=O)O [ASA, acetylsalicylic acid, reference compound] | – | 15.2% | 22.1% | – | – | 13.2% | 17.4% | –
